Reference: publication PMC7156458, “Synthetic biology based construction of biological activity-related library of fungal decalin-containing diterpenoid pyrones” (Nature Communications, 2020)

Biological target: Aβ42 (Homo sapiens, UniProt P05067)
Assay: Th-T (thioflavin-T) assay of Aβ42 aggregation
Type: biochemical
Conditions: for Th-T fluorescence, mean of three wells: compound at 50

Sequence of Aβ42 (P05067 672-713): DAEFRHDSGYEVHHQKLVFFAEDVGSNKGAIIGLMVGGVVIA

## C=C1CCC2C(C)(CCC=C(C)C)C(O)CCC2(C)C1Cc1c(OC)oc(C)c(C(=O)OC)c1=O (stereo not drawn) [Compound 14]
Reading M54 of time course
  Th-T fluorescence, mean of three wells: 4.776
Reading M55 of time course
  Th-T fluorescence, mean of three wells: 4.689
Reading M56 of time course
  Th-T fluorescence, mean of three wells: 4.625
Reading M57 of time course
  Th-T fluorescence, mean of three wells: 4.524
Reading M58 of time course
  Th-T fluorescence, mean of three wells: 4.45
Reading M59 of time course
  Th-T fluorescence, mean of three wells: 4.296
Reading M60 of time course
  Th-T fluorescence, mean of three wells: 4.2063
Reading M61 of time course
  Th-T fluorescence, mean of three wells: 4.042
Reading M62 of time course
  Th-T fluorescence, mean of three wells: 3.946
Concentration 10, unit not given, time-course reading M129
  Th-T fluorescence of Aβ42 with compound, mean of three wells (Fig. 7a source data): 2.897
Concentration 10, unit not given, time-course reading M130
  Th-T fluorescence of Aβ42 with compound, mean of three wells (Fig. 7a source data): 2.933
Concentration 10, unit not given, time-course reading M131
  Th-T fluorescence of Aβ42 with compound, mean of three wells (Fig. 7a source data): 2.925
Concentration 10, unit not given, time-course reading M132
  Th-T fluorescence of Aβ42 with compound, mean of three wells (Fig. 7a source data): 2.913
Concentration 10, unit not given, time-course reading M133
  Th-T fluorescence of Aβ42 with compound, mean of three wells (Fig. 7a source data): 2.914
Concentration 10, unit not given, time-course reading M134
  Th-T fluorescence of Aβ42 with compound, mean of three wells (Fig. 7a source data): 2.928
Concentration 10, unit not given, time-course reading M135
  Th-T fluorescence of Aβ42 with compound, mean of three wells (Fig. 7a source data): 2.926
Concentration 10, unit not given, time-course reading M136
  Th-T fluorescence of Aβ42 with compound, mean of three wells (Fig. 7a source data): 2.935
Concentration 10, unit not given, time-course reading M137
  Th-T fluorescence of Aβ42 with compound, mean of three wells (Fig. 7a source data): 2.902
Concentration 10, unit not given, time-course reading M138
  Th-T fluorescence of Aβ42 with compound, mean of three wells (Fig. 7a source data): 2.929
Concentration 10, unit not given, time-course reading M139
  Th-T fluorescence of Aβ42 with compound, mean of three wells (Fig. 7a source data): 2.934
Concentration 10, unit not given, time-course reading M140
  Th-T fluorescence of Aβ42 with compound, mean of three wells (Fig. 7a source data): 2.924
Concentration 10, unit not given, time-course reading M141
  Th-T fluorescence of Aβ42 with compound, mean of three wells (Fig. 7a source data): 2.927
Concentration 10, unit not given, time-course reading M142
  Th-T fluorescence of Aβ42 with compound, mean of three wells (Fig. 7a source data): 2.953
Concentration 10, unit not given, time-course reading M143
  Th-T fluorescence of Aβ42 with compound, mean of three wells (Fig. 7a source data): 2.943
Concentration 10, unit not given, time-course reading M144
  Th-T fluorescence of Aβ42 with compound, mean of three wells (Fig. 7a source data): 2.936
Concentration 10, unit not given, time-course reading M145
  Th-T fluorescence of Aβ42 with compound, mean of three wells (Fig. 7a source data): 2.952
Concentration 20, unit not given, time-course reading M129
  Th-T fluorescence of Aβ42 with compound, mean of three wells (Fig. 7a source data): 1.587
Concentration 20, unit not given, time-course reading M130
  Th-T fluorescence of Aβ42 with compound, mean of three wells (Fig. 7a source data): 1.596
Concentration 20, unit not given, time-course reading M131
  Th-T fluorescence of Aβ42 with compound, mean of three wells (Fig. 7a source data): 1.618
Concentration 20, unit not given, time-course reading M132
  Th-T fluorescence of Aβ42 with compound, mean of three wells (Fig. 7a source data): 1.578
Concentration 20, unit not given, time-course reading M133
  Th-T fluorescence of Aβ42 with compound, mean of three wells (Fig. 7a source data): 1.602
Concentration 20, unit not given, time-course reading M134
  Th-T fluorescence of Aβ42 with compound, mean of three wells (Fig. 7a source data): 1.594
Concentration 20, unit not given, time-course reading M135
  Th-T fluorescence of Aβ42 with compound, mean of three wells (Fig. 7a source data): 1.594
Concentration 20, unit not given, time-course reading M136
  Th-T fluorescence of Aβ42 with compound, mean of three wells (Fig. 7a source data): 1.5818
Concentration 20, unit not given, time-course reading M137
  Th-T fluorescence of Aβ42 with compound, mean of three wells (Fig. 7a source data): 1.578
Concentration 20, unit not given, time-course reading M138
  Th-T fluorescence of Aβ42 with compound, mean of three wells (Fig. 7a source data): 1.586
Concentration 20, unit not given, time-course reading M139
  Th-T fluorescence of Aβ42 with compound, mean of three wells (Fig. 7a source data): 1.563
Concentration 20, unit not given, time-course reading M140
  Th-T fluorescence of Aβ42 with compound, mean of three wells (Fig. 7a source data): 1.578
Concentration 20, unit not given, time-course reading M141
  Th-T fluorescence of Aβ42 with compound, mean of three wells (Fig. 7a source data): 1.561
Concentration 20, unit not given, time-course reading M142
  Th-T fluorescence of Aβ42 with compound, mean of three wells (Fig. 7a source data): 1.586
Concentration 20, unit not given, time-course reading M143
  Th-T fluorescence of Aβ42 with compound, mean of three wells (Fig. 7a source data): 1.575
Concentration 20, unit not given, time-course reading M144
  Th-T fluorescence of Aβ42 with compound, mean of three wells (Fig. 7a source data): 1.583
Concentration 20, unit not given, time-course reading M145
  Th-T fluorescence of Aβ42 with compound, mean of three wells (Fig. 7a source data): 1.572
Concentration 50, unit not given, time-course reading M129
  Th-T fluorescence of Aβ42 with compound, mean of three wells (Fig. 7a source data): 0.8842
Concentration 50, unit not given, time-course reading M130
  Th-T fluorescence of Aβ42 with compound, mean of three wells (Fig. 7a source data): 0.8634
Concentration 50, unit not given, time-course reading M131
  Th-T fluorescence of Aβ42 with compound, mean of three wells (Fig. 7a source data): 0.8505
Concentration 50, unit not given, time-course reading M132
  Th-T fluorescence of Aβ42 with compound, mean of three wells (Fig. 7a source data): 0.8369
Concentration 50, unit not given, time-course reading M133
  Th-T fluorescence of Aβ42 with compound, mean of three wells (Fig. 7a source data): 0.8131
Concentration 50, unit not given, time-course reading M134
  Th-T fluorescence of Aβ42 with compound, mean of three wells (Fig. 7a source data): 0.8297
Concentration 50, unit not given, time-course reading M135
  Th-T fluorescence of Aβ42 with compound, mean of three wells (Fig. 7a source data): 0.8031
Concentration 50, unit not given, time-course reading M136
  Th-T fluorescence of Aβ42 with compound, mean of three wells (Fig. 7a source data): 0.8035
Concentration 50, unit not given, time-course reading M137
  Th-T fluorescence of Aβ42 with compound, mean of three wells (Fig. 7a source data): 0.7873
Concentration 50, unit not given, time-course reading M138
  Th-T fluorescence of Aβ42 with compound, mean of three wells (Fig. 7a source data): 0.78
Concentration 50, unit not given, time-course reading M139
  Th-T fluorescence of Aβ42 with compound, mean of three wells (Fig. 7a source data): 0.7658
Concentration 50, unit not given, time-course reading M140
  Th-T fluorescence of Aβ42 with compound, mean of three wells (Fig. 7a source data): 0.7572
Concentration 50, unit not given, time-course reading M141
  Th-T fluorescence of Aβ42 with compound, mean of three wells (Fig. 7a source data): 0.7413
Concentration 50, unit not given, time-course reading M142
  Th-T fluorescence of Aβ42 with compound, mean of three wells (Fig. 7a source data): 0.7418
